Consider 10 molecules from patent US4686221A, “Quinolinecarboxylic acid compounds and antimicrobial agent containing the same” (Kanebo, Ltd., priority 1985, dated 1987).

As a reminder, the ED50 is the dose that gives a 50% effect, or the effect in half of the subjects. As usually defined, the LD50 is the dose expected to kill half of the subjects tested. Read a high LD50 as lower toxicity.

In data set [1] the test system is Staphylococcus aureus IID 803. As to the kind of experiment: Antibacterial activity in vitro (minimum inhibitory concentration: MIC). Type of data set: cell-based. The protocol:
(§1) Staphylococcus aureus IID 803
(§2) (1) Measurement of antibacterial activity in vitro (minimum inhibitory concentration: MIC):
(§3) The test compounds were each dissolved in 0.1N aqueous potassium hydroxide or sterilized distilled water and diluted with sterilized distilled water to give a standard solution (concentration: 1,000 μg/ml). The test was carried out by a method as appointed by Japan Society of Chemotherapy [cf. Chemotherapy, 29, 76-79 (1981) (TOKYO)].

Data set [2] concerns Escherichia coli KC-14. The description is as above. Type of data set: cell-based. The protocol: as §2, §3
For data set [3], the system named is Staphylococcus aureus IID 803. As to the kind of experiment: Antibacterial activity in vivo (effect against systemic infection: ED50), S. aureus infected mice. On the set-up: species or system ddY male mice infected with Staphylococcus aureus. Conditions: read-out: Antibacterial activity ED50 (50% effective dose). The protocol:
as §1
(§4) (2) Measurement of antibacterial activity in vivo (effect against systemic infection: ED50):
(§5) The test microorganism was cultured by stationary culture in an agar medium (Trypto-Soya Agar "Nissui", manufactured by Nissui Seiyaku K.K., Japan) at 37° C. for 16 to 18 hours. The culture was diluted with PBS (Dulbecco's phosphate buffered saline) and then was mixed with an equiamount of 10% (W/V) mucin (BACTO MUCIN BACTERIOLOGICAL, manufactured by Difco Co.). The mixture thus prepared was intraperitoneally inoculated to fasted ddY male mice (4 weeks age, weighing 18-20 g, one group: 5 mice) in a dose of 0.5 ml. The inoculum size was 1.3×10^7 CFU/mouse in case of S. aureus IID 803, and 9.7×10^3 CFU/mouse in case of E. coli KC-14.
(§6) The mice were daily observed for one week, and from the survival number of mice after one week, the 50% effective dose (ED50) was calculated by the Weil method.

Data set [4] deals with Escherichia coli KC-14. As to the kind of experiment: Antibacterial activity in vivo (effect against systemic infection: ED50), E. coli infected mice. More on the design: species or system ddY male mice infected with Escherichia coli. Conditions: read-out: Antibacterial activity ED50 (50% effective dose). The procedure: as §4, §5, §6
The next data set in a line: in vivo. The settings on record: mouse, po.
The mark [5] stands for this setting: IID803, S. aureus IID 803, in vitro, read-out: Antibacterial activity MIC (minimum inhibitory concentration).
The mark [6] stands for this setting: KC14, E. coli KC-14, in vitro, read-out: Antibacterial activity MIC (minimum inhibitory concentration).
The mark [7] stands for this setting: IID803, 168 h, S. aureus IID 803 systemic infection, mice, oral 1 h after infection, survival after one week.
[8] abbreviates: KC14, 168 h, E. coli KC-14 systemic infection, mice, oral 1 h after infection, survival after one week.

In brackets after ≈: the same amount, converted by molar mass. Counter-ions that a name gives are not always drawn. Like-named read-outs stand apart in the source and are kept apart here.

Consider `CCn1cc(C(=O)O)c(=O)c2cc(F)c(N3CCNCC3)c(F)c21.Cl` [C, 1-Ethyl-6,8-difluoro-1,4-dihydro-7-(piperazin-1-yl)-4-oxoquinoline-3-carboxylic acid hydrochloride, reference compound], for which the MIC came out at 0.78 µg/mL in data set [1] (setting [5]) and 0.1 µg/mL in the data set with Escherichia coli KC-14 [2] (setting [6]). The ED50 in data set [3] (setting [7]) is 40.3 mg/kg; in the data set with Escherichia coli KC-14 [4] (setting [8]), 1.46 mg/kg. The LD50 at 336 h in the data set “in vivo” worked out at 1070 mg/kg.
Taken in the same sequence, the figures for `Cl.O.O=C(O)c1cn(CCF)c2c(F)c(N3CCN(O)CC3)c(F)cc2c1=O` [compound 4, 6,8-Difluoro-1-(2-fluoroethyl)-1,4-dihydro-7-(4-hydroxypiperazin-1-yl)-4-oxoquinoline-3-carboxylic acid hydrochloride monohydrate] were 1.56 µg/mL, 0.39 µg/mL, 107 mg/kg, 1.46 mg/kg and > 4000 mg/kg.
With `Cl.O=C(O)c1cn(CCF)c2c(F)c(N3CCNCC3)c(F)cc2c1=O` [D, 6,8-Difluoro-1-(2-fluoroethyl)-1,4-dihydro-7-(piperazin-1-yl)-4-oxoquinoline-3-carboxylic acid hydrochloride, reference compound], the MIC in data set [1] (setting [5]) came out at 1.56 µg/mL; in the data set on Escherichia coli KC-14 [2] (setting [6]), 0.2 µg/mL. In addition, the ED50 in data set [3] (setting [7]) was determined as 123 mg/kg; with Escherichia coli KC-14 [4] (setting [8]) it was 5.82 mg/kg.
For `CCn1cc(C(=O)O)c(=O)c2cc(F)c(N3CCN(O)CC3)c(F)c21.Cl` [compound 3, 1-Ethyl-6,8-difluoro-1,4-dihydro-7-(4-hydroxypiperazin-1-yl)-4-oxoquinoline-3-carboxylic acid hydrochloride], the results for the MIC (in data set [1] (setting [5]); with Escherichia coli KC-14 [2] (setting [6])) were 0.78 µg/mL and 0.2 µg/mL, respectively. Moreover, the ED50 was found to be 26.8 mg/kg in data set [3] (setting [7]) and 0.84 mg/kg in the data set on Escherichia coli KC-14 [4] (setting [8]). The 50% lethal dose (LD50) at 336 h in “in vivo” is > 4000 mg/kg.
Take `Cl.O=C(O)c1cn(C2CC2)c2c(F)c(N3CCNCC3)c(F)cc2c1=O` [E, 1-Cyclopropyl-6,8-difluoro-1,4-dihydro-7-(piperazin-1-yl)-4-oxoquinoline-3-carboxylic acid hydrochloride, reference compound]: the MIC is 0.2 µg/mL in data set [1] (setting [5]) and 0.0125 µg/mL in the data set with Escherichia coli KC-14 [2] (setting [6]). In addition, the ED50 in data set [3] (setting [7]) is 5.07 mg/kg; in the data set on Escherichia coli KC-14 [4] (setting [8]), 0.28 mg/kg. The same molecule yielded an LD50 at 336 h in the data set “in vivo” of 1410 mg/kg.
Take `Cl.O=C(O)c1cn(C2CC2)c2c(F)c(N3CCN(O)CC3)c(F)cc2c1=O` [compound 5, 1-Cyclopropyl-6,8-difluoro-1,4-dihydro-7-(4-hydroxypiperazin-1-yl)-4-oxoquinoline-3-carboxylic acid hydrochloride]: the MIC in data set [1] (setting [5]) worked out at 0.39 µg/mL; with Escherichia coli KC-14 [2] (setting [6]), 0.05 µg/mL. The ED50 in data set [3] (setting [7]) was 3.84 mg/kg; in the data set with Escherichia coli KC-14 [4] (setting [8]) it was 0.19 mg/kg. In “in vivo”, the LD50 at 336 h was > 4000 mg/kg.
With `CCn1cc(C(=O)O)c(=O)c2cc(F)c(N3CCN(O)CC3)cc21` [compound 1, 1-Ethyl-6-fluoro-1,4-dihydro-7-(4-hydroxypiperazin-1-yl)-4-oxoquinoline-3-carboxylic acid], the results for the MIC (in data set [1] (setting [5]); with Escherichia coli KC-14 [2] (setting [6])) were 1.56 µg/mL (≈ 4.65 µM) and 0.39 µg/mL (≈ 1.16 µM), respectively. In addition, the ED50 in data set [3] (setting [7]) amounted to 187 mg/kg; in the data set on Escherichia coli KC-14 [4] (setting [8]), 1.92 mg/kg. Moreover, the LD50 at 336 h in the data set “in vivo” is > 4000 mg/kg.
Taken in the same sequence, the figures for `O=C(O)c1cn(C2CC2)c2cc(N3CCN(O)CC3)c(F)cc2c1=O` [compound 2, 1-Cyclopropyl-6-fluoro-1,4-dihydro-7-(4-hydroxypiperazin-1-yl)-4-oxoquinoline-3-carboxylic acid hydrochloride 1/4 hydrate] were 0.78 µg/mL, 0.025 µg/mL, 17.7 mg/kg, 0.37 mg/kg and > 4000 mg/kg.
For `Cl.O=C(O)c1cn(C2CC2)c2cc(N3CCNCC3)c(F)cc2c1=O` [B, 1-Cyclopropyl-6-fluoro-1,4-dihydro-7-(piperazin-1-yl)-4-oxoquinoline-3-carboxylic acid hydrochloride, reference compound], the MIC in data set [1] (IID803, read-out: Antibacterial activity MIC (minimum inhibitory concentration)) worked out at 0.78 µg/mL; in the data set with Escherichia coli KC-14 [2] (KC14, read-out: Antibacterial activity MIC (minimum inhibitory concentration)), 0.0125 µg/mL. Moreover, the ED50 in data set [3] (IID803, po, 168 h) is 46.7 mg/kg; in the data set on Escherichia coli KC-14 [4] (KC14, po, 168 h), 0.84 mg/kg.
With `CCn1cc(C(=O)O)c(=O)c2cc(F)c(N3CCNCC3)cc21` [A, 1-Ethyl-6-fluoro-1,4-dihydro-7-(piperazin-1-yl)-4-oxoquinoline-3-carboxylic acid, reference compound], the MIC turned out to be 1.56 µg/mL (≈ 4.89 µM) in data set [1] (setting [5]) and 0.2 µg/mL (≈ 0.626 µM) with Escherichia coli KC-14 [2] (setting [6]). Further, the ED50 in data set [3] (setting [7]) turned out to be 225 mg/kg; with Escherichia coli KC-14 [4] (setting [8]), 5.82 mg/kg.
